Data from patent US11492667B2, “Compositions and methods for detecting molecular targets on chromosomal DNA” (New England Biolabs, Inc., priority 2020, dated 2022).

B1: Protein G-gHNH: NEFP: Protein G fused via linker to gHNH nicking endonuclease, SEQ ID NO: 5 (protein)
chain: MKGETTTEAVDAATAEKVFKQYANDNGVDGEWTYDDATKTFTVTEKPEVIDASELTPAVTTYKLVINGKTLKGETTTEAVDAATAEKVFKQYANDNGVDGEWTYDDATKTFTVTEKPEVIDASELTPAVTTYKLVINGKTLKGETTTKAVDAETAEKAFKQYANDNGVDGVWTYDDATKTFTVTEGSATIVKKPLRPCCEFHCYNLTRERYCEEHRYKEKETQQDKNRYYDRFKRDKESTAFYRSKAWERLREQALMRDKGLCLHCKNNRKIKVADMVDHIIPIKVDPSLKLKLENLQSLCNPCHNRKTAEDKKKYG

Key:
[1] = system: Nt.CviPII-Protein A fusion; assay: Inhibition of nicking activity of Nt.CviPII-Protein A fusion by heparin sodium salt; assay type: biochemical; settings: 2.5 units Nt.CviPII-Protein A, 0.5 μg pUC19, NEBuffer 2, 40 minutes 37° C.
Method: In lanes 1-9, 2.5 units of NEFP was added to 0.5 μgs of plasmid DNA in the presence of increasing amounts of heparin (0.15-10 mg/ml). Digestion was not observed when 0.3 mg heparin/ml or greater amounts are present.
To determine the effect of heparin sodium salt on the inhibition of nicking activities of Nt.CviPII-Protein A fusion, reaction tubes containing 10, 5, 2.5, 1.25, 0.62, 0.31, 0.15, and 0 mg/ml heparin, sodium salt were added to a 50 μl reaction, consisting of 5 μl 10×NEBuffer 2, 2.5 units Nt.CviPII-Protein A (as described in Example 1(B)), and 0.5 μg pUC19 DNA and incubated for 40 minutes 37° C. 10 μl of DNA loading dye mix (5×) was added to the samples and were resolved on a 10% polyacrylamide gel. The gel was stained with SYBR® Green (Molecular Probes, Eugene, Oreg.) and scanned on a Typhoon® imager (GE Healthcare Bio-Sciences, Marlborough, Mass.).

[2] = system: DNA-Nt.CviPII-Protein A complex; assay: Gel-shift assay: dissociation of DNA-Nt.CviPII-Protein A complex by heparin; assay type: binding
Method: From left to right: C is a control that is DNA in the absence of a NEFP or heparin. 0 is a control in which nicking endonuclease was added to DNA in the absence of heparin. The DNA-NEFP complex (DNA-Nt.CviPII-Protein A complex) is seen as a band at the top of the lane.
To establish that the inhibitory effect of heparin, sodium salt in untethered Nt.CviPII-Protein A fusion activity was due to selective dissociation between DNA substrate and fusion enzyme, a gel-shift assay was performed. Double stranded DNA substrate containing constant amounts of Nt.CviPII binding domains (CCA, 5′[…]-F, F=fluorescein (SEQ ID NO:9)) and 3.2 μM Nt.CviPII-Protein A fusion were combined in the presence of 1×NEBuffer 2 in the absence of magnesium for 30 minutes at room temperature to enable an enzyme-substrate complex to be formed. Increasing amounts of heparin, sodium salt (0, 2.3, 4.6, […], 20, 42, 83, 166, 330 μg/ml) was added to the total 50 μl reaction volume. It was observed that a heparin concentration of greater than 0.2 mgs/ml (at least […]) enabled complete dissociation of the DNA-Nt.CviPII-Protein A complex as observed by the appearance of bands corresponding to DNA alone in a native 6% retardation gel (Thermo Fisher Scientific, Waltham, Mass.). It was concluded that Heparin causes dissociation Nt.CviPII-Protein A fusions from the bound substrate DNA (FIG. 2B).

[3] = system: antibody-Protein A/G complex; assay: Effect of heparin on antibody-Protein A/G complex (magnetic beads, SDS gel); assay type: binding; settings: 0.125, 0.25, 0.5 and 1 mg/ml Heparin, 30 minutes, room temperature, Sodium Salt
From the text: The numbers on the top indicate added heparin quantity in the reaction mgs/ml.
Antibody heavy and light chains that are bound to Protein A/G can be released by boiling and resolved on an SDS gel (B). Any antibody that was free in solution having been eluted or displaced by heparin from Protein A/G could be visualized without boiling (E).
To determine the effect of heparin on the formation of the antibody-Protein A/G complex, 5 mgs of immobilized and covalently cross-linked protein A/G magnetic beads were bound to 50 μgs of IgG molecules in a 50 μl reaction volume containing 1×PBST at room temperature for 30 minutes. The complex was washed 3 times using 1 ml of 1×PBST and incubated with 0.125, 0.25, 0.5 and 1 mg/ml Heparin for 30 minutes at room temperature in 25 μl total volume. The bead-bound (B) and unbound or bead elution (E) fractions were collected, SDS sample buffer (New England Biolabs, Ipswich, Mass.) was added and the samples were incubated at 95° C. for 5 minutes. Both B and E samples were resolved on tricine 10% acrylamide gel and stained for protein.

[4] = system: pBR322 circular double stranded DNA; assay: Nicking activity of Protein G/A-gHNH fusion on plasmid DNA (agarose gel); assay type: biochemical; settings: 1 μg pBR322, NEBuffer 2 with manganese ions, 50 μl, 37° C., 1 hour
Method: The nicking activity of Protein G-HNH was compared to a second non-fused nicking endonuclease (Nt.CviPII) (2 units) in the same gel to determine a generalized and consistent cleavage profile and was also compared to a control in the lane labeled 0 containing no nicking endonuclease either fused or unfused.
Protein G/A-gHNH fusion nicking activity was tested on pBR322 circular double stranded DNA using NEBuffer 2 in which magnesium ions were replaced by the same amount of manganese ions (1 mM). 1 μg of plasmid was used with 0.03 to 2 units of Protein G/A-gHNH fusion enzyme in a two-fold serial dilutions (2, 1, 0.5, 0.25, 0.125, 0.06, 0.03 units) in a total volume of 50 μl incubated at 37° C. for 1 hour. 10 μl of DNA loading dye mix (5×) was added to the nicked DNA. The nicked DNA samples were resolved on a 1% agarose gel and visualized under UV light. DNA fragment size was estimated along with 2 log DNA ladder (New England Biolabs, Ipswich, Mass.) and positive control Nt.CviPII (2 units) of the non-fused nicking endonuclease, (New England Biolabs, Ipswich, Mass.) digested pBR322 DNA (FIG. 1B). […] A representative figure supporting this conclusion is provided in FIG. 1B for Protein G-gHNH fusions.

Sequence of Nt.CviPII-Protein A fusion (as listed by the source): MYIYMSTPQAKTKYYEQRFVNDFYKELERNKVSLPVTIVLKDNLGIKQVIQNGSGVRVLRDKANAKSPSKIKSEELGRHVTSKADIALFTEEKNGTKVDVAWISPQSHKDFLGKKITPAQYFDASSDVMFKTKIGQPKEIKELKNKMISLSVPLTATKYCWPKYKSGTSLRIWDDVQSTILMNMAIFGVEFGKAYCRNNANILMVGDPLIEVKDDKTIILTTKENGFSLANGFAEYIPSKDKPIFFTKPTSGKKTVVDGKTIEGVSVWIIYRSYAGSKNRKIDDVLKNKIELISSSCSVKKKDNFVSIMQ

Molecule	heparin concentration giving total inhibition of nicking (no digestion) [1] [mg/mL]	heparin concentration giving total inhibition of nicking (no digestion) ([1]; listed as heparin) [mg/mL]	heparin concentration enabling complete dissociation of the DNA-Nt.CviPII-Protein A complex ([2]; 3.2 μM Nt.CviPII-Protein A, fluorescein dsDNA, NEBuffer 2 without magnesium, room temperature)	heparin concentration at which NEFP is released entirely from the DNA ([2]; FIG. 2B legend, buffer without magnesium ions) [mg/mL]	effect of heparin on antibody bound to Protein A/G beads ([3]; listed as Heparin)	effect of heparin on antibody bound to Protein A/G beads ([3]; listed as heparin)	amount of fusion enzyme giving partial digestion of the DNA [4] [units]
Heparin Sodium Salt	0.15 to 0.31	≥ 0.3	greater than 0.2 mgs/ml	> 4.6	cannot dissociate Protein A/G-antibody reaction	no elution or displacement of antibody occurred	
B1							0.03
